Measured values taken from ChEMBL document CHEMBL1201862, “PubChem BioAssay data set” (2004).
Counter-ions that a name gives are not always drawn. The source made the active and inactive calls.

Tests used:
[1] = target: Lysine-specific demethylase 4C (Homo sapiens, UniProt Q9H3R0); experiment: GASC-1 (JMJD2C) histone demethylase inhibitors, dose response, biochemical, DELFIA europium, cherry-picked samples (AID 488835); assay type: functional
[2] = target: SUMO E1/E2 (Homo sapiens, UniProt P63279+Q9UBE0+Q9UBT2); experiment: SAR analysis of SUMOylation using HTRF in an in-Vitro dose response assay. [Related pubchem assays (depositor defined):AID2006, AID2011, AID2018, AID2069, AID2658]; assay type: functional
[3] = target: T1, Voltage-gated N-type calcium channel alpha-1B subunit/Amyloid beta A4 precursor protein-binding family A member 1 (Homo sapiens, UniProt Q00975+Q02410); experiment: disruptors of Mint-PDZ/N-type channel peptide interaction – biochemical, HTRF, set 2, SAR follow-up (AID 434980); assay type: functional
[4] = target: T1, Voltage-gated N-type calcium channel alpha-1B subunit/Amyloid beta A4 precursor protein-binding family A member 1; experiment: disruptors of Mint-PDZ/N-type channel peptide interaction – biochemical, HTRF, SAR follow-up (AID 2489); assay type: functional
[5] = target: T2, Dual specificity protein phosphatase 3 (Homo sapiens, UniProt P51452); experiment: VHR1 phosphatase inhibitors, biochemical (AID 1878)
T2 sequence (P51452 whole entry): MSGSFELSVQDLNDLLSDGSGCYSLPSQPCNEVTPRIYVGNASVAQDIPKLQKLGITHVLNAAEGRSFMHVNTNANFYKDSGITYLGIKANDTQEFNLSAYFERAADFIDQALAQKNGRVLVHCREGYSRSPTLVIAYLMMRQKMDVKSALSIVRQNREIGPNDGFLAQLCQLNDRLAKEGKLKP

[6] = target: T3, Dual specificity protein phosphatase 6 (Rattus norvegicus, UniProt Q64346); experiment: MKP-3 phosphatase inhibitors, primary screen, biochemical, rat enzyme, in vitro (AID 425)
T3 sequence (Q64346 whole entry): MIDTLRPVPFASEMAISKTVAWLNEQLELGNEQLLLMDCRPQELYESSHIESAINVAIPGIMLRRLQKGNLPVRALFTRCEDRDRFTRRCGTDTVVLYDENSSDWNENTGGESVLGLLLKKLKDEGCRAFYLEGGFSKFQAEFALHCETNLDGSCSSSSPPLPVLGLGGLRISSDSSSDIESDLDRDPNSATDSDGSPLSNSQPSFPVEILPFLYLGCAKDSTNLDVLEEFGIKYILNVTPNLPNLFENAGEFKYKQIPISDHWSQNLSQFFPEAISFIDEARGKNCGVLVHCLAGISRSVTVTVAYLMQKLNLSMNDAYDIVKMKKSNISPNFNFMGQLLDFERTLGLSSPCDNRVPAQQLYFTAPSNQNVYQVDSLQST

[7] = target: T2, Dual specificity protein phosphatase 3; experiment: VHR1 phosphatase inhibitors, primary screen, biochemical, absorbance, uHTS (AID 1654)
[8] = target: T4, Polyadenylate-binding protein 1 (Homo sapiens, UniProt P11940); experiment: PABP1 MLLE–PAM2 interaction inhibitors, dose response, miRNA deadenylation inhibitor project, biochemical, fluorescence polarization, Cy5-PAM2 peptide, secondary (AID 602260); assay type: functional; details: read-out: IC50_Mean
T4 sequence (P11940 whole entry): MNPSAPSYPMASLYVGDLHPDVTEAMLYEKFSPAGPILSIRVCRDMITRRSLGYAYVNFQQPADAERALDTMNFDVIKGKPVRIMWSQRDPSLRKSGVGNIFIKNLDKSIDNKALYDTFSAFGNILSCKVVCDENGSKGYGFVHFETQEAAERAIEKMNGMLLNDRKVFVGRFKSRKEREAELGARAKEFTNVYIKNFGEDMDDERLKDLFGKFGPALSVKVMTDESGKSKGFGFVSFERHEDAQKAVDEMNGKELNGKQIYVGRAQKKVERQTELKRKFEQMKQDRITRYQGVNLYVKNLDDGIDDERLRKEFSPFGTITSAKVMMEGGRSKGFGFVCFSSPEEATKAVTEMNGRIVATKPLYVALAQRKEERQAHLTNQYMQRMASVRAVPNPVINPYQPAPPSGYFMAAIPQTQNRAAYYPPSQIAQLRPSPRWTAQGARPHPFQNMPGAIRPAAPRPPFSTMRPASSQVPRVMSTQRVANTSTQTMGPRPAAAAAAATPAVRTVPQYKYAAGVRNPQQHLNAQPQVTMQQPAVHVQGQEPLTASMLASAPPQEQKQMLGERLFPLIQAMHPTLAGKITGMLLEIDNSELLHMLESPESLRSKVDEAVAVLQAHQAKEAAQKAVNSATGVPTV

[9] = target: T4, Polyadenylate-binding protein 1; experiment: PABP1 MLLE–PAM2 binding inhibitor potency, dose response, biochemical, fluorescence polarization, FITC-PAM2 peptide (AID 602259); assay type: functional; details: read-out: IC50_Mean
[10] = target: Cytochrome P450 2C9 (Homo sapiens, UniProt P11712)
[11] = target: Cytochrome P450 2D6 (Homo sapiens, UniProt P10635);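 note: CYP2D6 member of a cytochrome P450 panel assay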
Chain of Cytochrome P450 2D6 (P10635 whole entry): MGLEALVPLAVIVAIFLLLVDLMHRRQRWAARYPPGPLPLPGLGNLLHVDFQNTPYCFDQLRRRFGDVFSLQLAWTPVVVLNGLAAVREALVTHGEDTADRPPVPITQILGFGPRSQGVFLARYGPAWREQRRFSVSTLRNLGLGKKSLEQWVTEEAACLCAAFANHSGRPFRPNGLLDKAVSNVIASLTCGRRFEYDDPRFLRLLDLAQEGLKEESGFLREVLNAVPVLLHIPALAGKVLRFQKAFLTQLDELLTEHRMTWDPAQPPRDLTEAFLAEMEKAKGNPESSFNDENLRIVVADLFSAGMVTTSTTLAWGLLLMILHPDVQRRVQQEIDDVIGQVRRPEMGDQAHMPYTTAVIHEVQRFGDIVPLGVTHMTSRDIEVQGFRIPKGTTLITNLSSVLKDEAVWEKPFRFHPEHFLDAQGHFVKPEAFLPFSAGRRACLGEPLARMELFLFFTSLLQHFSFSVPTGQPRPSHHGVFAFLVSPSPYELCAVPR

[12] = system: HEK293; experiment: cells; details: Homo sapiens
[13] = system: Streptococcus; experiment: Group A Streptococcus viability loss, dose response, counter-screen for streptokinase expression inhibitor project, luminescence, BacTiterGlo (AID 1915); assay type: functional, organism-based;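 note: potency for reduction of bacterial viability or growth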
[14] = target: Genome polyprotein (dengue virus type 2, UniProt P29990); experiment: Dengue-2 NS5 methyltransferase inhibitors, primary screen, biochemical, confirmation dose response (AID 588689); assay type: functional
[15] = system: HEK293; experiment: cells; details: Homo sapiens; remark: listed apart in the source
[16] = target: T5, Streptokinase A (Streptococcus pyogenes serotype M1, UniProt P10520); experiment: S. pyogenes streptokinase expression inhibitors, potency, dose response, plasminogen activation absorbance, OD405 (AID 1914); assay type: functional, Streptococcus pyogenes M1 GAS;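 note: secreted streptokinase activity via plasminogen activation per viability signal from cell pellet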
T5 sequence (P10520 whole entry): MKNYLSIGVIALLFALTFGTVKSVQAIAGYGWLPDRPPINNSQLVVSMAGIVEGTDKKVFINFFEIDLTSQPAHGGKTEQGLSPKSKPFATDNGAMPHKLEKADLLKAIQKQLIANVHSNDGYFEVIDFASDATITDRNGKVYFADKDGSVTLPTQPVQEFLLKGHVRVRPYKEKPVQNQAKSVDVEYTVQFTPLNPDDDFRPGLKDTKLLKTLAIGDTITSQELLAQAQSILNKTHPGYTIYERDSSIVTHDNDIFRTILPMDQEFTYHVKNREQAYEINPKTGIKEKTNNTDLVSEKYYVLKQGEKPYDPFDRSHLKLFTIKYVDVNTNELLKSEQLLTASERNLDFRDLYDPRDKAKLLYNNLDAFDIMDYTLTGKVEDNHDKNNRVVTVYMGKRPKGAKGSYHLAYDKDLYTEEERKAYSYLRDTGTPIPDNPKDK

[17] = target: Heat shock protein HSP 90-alpha (Homo sapiens, UniProt P07900); assay type: functional, organism-based
[18] = system: Streptococcus sp. 'group A'; experiment: growth inhibition of control SK(-) GAS strain, dose response, counter-screen for streptokinase expression inhibitor project, luminescence, kanamycin, BacTiterGlo, confirmation (AID 1900); assay type: functional, organism-based
[19] = target: T6, Bcl-2-related protein A1 (Mus musculus, UniProt Q07440); assay type: functional;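 note: confirmatory dose–response counterscreen on Bfl-1, used to check hits from a UBC13 polyubiquitin inhibitor campaign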
T6 sequence (Q07440 whole entry): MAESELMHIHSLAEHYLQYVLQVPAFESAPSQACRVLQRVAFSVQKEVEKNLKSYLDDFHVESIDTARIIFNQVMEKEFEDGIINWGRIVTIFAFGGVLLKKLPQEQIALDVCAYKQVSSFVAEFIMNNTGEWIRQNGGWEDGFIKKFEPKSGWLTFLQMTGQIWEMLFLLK

[20] = target: T7, Ubiquitin-conjugating enzyme E2 N (Homo sapiens, UniProt P61088); assay type: functional
T7 sequence (P61088 whole entry): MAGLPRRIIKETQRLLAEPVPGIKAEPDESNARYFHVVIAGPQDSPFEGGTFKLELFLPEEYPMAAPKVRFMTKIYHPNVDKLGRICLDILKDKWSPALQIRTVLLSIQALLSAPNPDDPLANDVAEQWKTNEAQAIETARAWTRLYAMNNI

[21] = target: T7, Ubiquitin-conjugating enzyme E2 N; assay type: functional; remark: listed apart in the source
[22] = target: T8, Alkaline phosphatase, tissue-nonspecific isozyme (Homo sapiens, UniProt P05186); experiment: TNAP enzyme activators, dose response, selectivity assay for human IAP activator project, biochemical, TNAP isozyme, human IAP uHTS hits (AID 488886); assay type: functional;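 note: potency of compounds raising TNAP activity as a selectivity check on IAP activators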
T8 sequence (P05186 whole entry): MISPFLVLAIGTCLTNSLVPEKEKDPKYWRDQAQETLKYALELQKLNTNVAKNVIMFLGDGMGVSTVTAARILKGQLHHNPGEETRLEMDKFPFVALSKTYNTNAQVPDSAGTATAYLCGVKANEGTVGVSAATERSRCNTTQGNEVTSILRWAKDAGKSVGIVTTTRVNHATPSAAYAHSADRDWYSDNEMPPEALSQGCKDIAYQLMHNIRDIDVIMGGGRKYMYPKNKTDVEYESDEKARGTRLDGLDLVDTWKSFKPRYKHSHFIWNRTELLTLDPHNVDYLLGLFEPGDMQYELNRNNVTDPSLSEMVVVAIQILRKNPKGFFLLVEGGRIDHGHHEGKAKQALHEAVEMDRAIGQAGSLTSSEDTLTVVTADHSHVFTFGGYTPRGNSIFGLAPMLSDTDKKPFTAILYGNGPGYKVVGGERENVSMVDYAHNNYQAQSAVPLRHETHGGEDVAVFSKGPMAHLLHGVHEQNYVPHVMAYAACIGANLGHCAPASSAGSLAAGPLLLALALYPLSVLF

[23] = target: T9, Intestinal-type alkaline phosphatase (Homo sapiens, UniProt P09923); experiment: human IAP activators, dose response, biochemical, luminescent, uHTS hits, set 2 (AID 488817); assay type: functional;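 note: potency of activators that raise enzyme activity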
T9 sequence (P09923 whole entry): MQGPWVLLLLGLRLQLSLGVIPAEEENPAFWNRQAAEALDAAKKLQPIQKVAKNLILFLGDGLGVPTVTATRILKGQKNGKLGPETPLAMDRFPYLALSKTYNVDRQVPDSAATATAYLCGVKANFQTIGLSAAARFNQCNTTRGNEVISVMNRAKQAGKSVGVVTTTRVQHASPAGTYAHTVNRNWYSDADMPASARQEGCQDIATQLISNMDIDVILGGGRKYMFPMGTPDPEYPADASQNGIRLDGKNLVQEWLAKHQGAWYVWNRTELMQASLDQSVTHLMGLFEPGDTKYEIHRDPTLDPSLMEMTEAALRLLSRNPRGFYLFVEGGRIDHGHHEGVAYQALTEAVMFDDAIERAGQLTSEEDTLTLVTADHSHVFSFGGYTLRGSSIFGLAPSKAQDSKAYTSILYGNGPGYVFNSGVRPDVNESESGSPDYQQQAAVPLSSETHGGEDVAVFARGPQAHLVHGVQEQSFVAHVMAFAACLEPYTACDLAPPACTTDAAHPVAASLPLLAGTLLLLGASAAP

[24] = target: T9, Intestinal-type alkaline phosphatase; experiment: human intestinal alkaline phosphatase activators, dose response, biochemical, luminescence, uHTS hits (AID 463120); assay type: functional
[25] = target: Intestinal-type alkaline phosphatase (Mus musculus, UniProt P24822); experiment: PubChem AID 488875; assay type: functional
[26] = target: Paired box protein Pax-8 (Homo sapiens, UniProt Q06710); experiment: inhibitors of PAX8-driven TPO luciferase reporter, dose response, RMG-I cells, cherry-pick (AID 687027); assay type: functional, cell-based;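 note: luciferase reporter driven by Pax8 target thyroperoxidase promoter measured by SteadyGlo luminescence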
[27] = target: T10, X-box-binding protein 1 (Homo sapiens, UniProt P17861); assay type: functional, Cricetulus griseus;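 note: confirmatory dose-response counter-screen serving a CHOP assay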
T10 sequence (P17861 whole entry): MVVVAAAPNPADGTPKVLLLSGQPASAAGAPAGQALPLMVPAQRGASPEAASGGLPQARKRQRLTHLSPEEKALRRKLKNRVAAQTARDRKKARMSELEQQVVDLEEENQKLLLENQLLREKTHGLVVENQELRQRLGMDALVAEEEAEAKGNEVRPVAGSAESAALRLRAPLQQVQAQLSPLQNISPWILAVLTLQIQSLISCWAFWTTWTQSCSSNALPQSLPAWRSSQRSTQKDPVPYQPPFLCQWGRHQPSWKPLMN

[28] = target: DNA damage-inducible transcript 3 protein (Mus musculus, UniProt P35639); assay type: functional, Cricetulus griseus
Chain of DNA damage-inducible transcript 3 protein (P35639 whole entry): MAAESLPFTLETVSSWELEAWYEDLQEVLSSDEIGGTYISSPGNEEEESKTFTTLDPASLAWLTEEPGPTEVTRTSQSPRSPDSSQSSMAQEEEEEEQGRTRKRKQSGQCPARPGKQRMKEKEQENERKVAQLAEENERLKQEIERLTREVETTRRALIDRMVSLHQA

[29] = target: Sphingosine 1-phosphate receptor 2 (Homo sapiens, UniProt O95136); experiment: Late stage counterscreen assay for S1P4 antagonists: Fluorescence dose response cell-based screening assay for antagonists of the Sphingosine 1-Phosphate Receptor 2 (S1P2). [Related pubchem assays (depositor defined):AID1510, AID1524, AID1692, AID1853, AID2332, AID489009, AID489017]; assay type: functional
[30] = target: Sphingosine 1-phosphate receptor 5 (Homo sapiens, UniProt Q9H228); experiment: Late stage counterscreen assay for S1P4 antagonists: Fluorescence dose response cell-based screening assay for antagonists of the Sphingosine 1-Phosphate Receptor 5 (S1P5). [Related pubchem assays (depositor defined):AID1510, AID1524, AID1692, AID1853, AID2332, AID489009, AID489017]; assay type: functional
Chain of Sphingosine 1-phosphate receptor 5 (Q9H228 whole entry): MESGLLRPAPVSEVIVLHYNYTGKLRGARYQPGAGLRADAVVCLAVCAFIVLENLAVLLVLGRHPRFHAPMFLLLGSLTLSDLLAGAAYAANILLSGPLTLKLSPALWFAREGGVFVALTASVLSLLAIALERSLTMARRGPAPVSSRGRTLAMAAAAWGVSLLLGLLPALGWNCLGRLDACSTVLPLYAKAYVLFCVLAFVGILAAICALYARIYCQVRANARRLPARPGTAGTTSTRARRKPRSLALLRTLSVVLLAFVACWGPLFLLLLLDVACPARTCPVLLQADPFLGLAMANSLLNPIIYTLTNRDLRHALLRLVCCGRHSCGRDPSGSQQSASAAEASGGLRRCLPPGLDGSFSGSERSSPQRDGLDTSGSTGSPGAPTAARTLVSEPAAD

[31] = target: Sphingosine 1-phosphate receptor 1 (Homo sapiens, UniProt P21453); experiment: Late stage counterscreen assay for S1P4 antagonists: Fluorescence dose response cell-based screening assay for antagonists of the Sphingosine 1-Phosphate Receptor 1 (S1P1). [Related pubchem assays (depositor defined):AID1510, AID1524, AID1692, AID1853, AID2332, AID489009, AID489017]; assay type: functional
[32] = target: Sphingosine 1-phosphate receptor 3 (Homo sapiens, UniProt Q99500); experiment: Late stage counterscreen assay for S1P4 antagonists: Fluorescence dose response cell-based screening assay for antagonists of the Sphingosine 1-Phosphate Receptor 3 (S1P3). [Related pubchem assays (depositor defined):AID1510, AID1524, AID1692, AID1853, AID2332, AID489009, AID489017]; assay type: functional
[33] = target: SUMO-activating enzyme (Homo sapiens, UniProt Q9UBT2); experiment: SUMOylation inhibitor hit validation, confirmation, SUMOylation inhibitor project, biochemical, AlphaScreen (AID 2018); assay type: functional
[34] = target: Voltage-dependent T-type calcium channel subunit alpha-1H (Homo sapiens, UniProt O95180); experiment: Cav3.2 T-type channel inhibitors, synthesized analogs, SAR follow-up, cell-based, synthetic library set 2, HEK293 HH8, Fluo-4 (AID 493023); assay type: functional
Chain of Voltage-dependent T-type calcium channel subunit alpha-1H (O95180 whole entry): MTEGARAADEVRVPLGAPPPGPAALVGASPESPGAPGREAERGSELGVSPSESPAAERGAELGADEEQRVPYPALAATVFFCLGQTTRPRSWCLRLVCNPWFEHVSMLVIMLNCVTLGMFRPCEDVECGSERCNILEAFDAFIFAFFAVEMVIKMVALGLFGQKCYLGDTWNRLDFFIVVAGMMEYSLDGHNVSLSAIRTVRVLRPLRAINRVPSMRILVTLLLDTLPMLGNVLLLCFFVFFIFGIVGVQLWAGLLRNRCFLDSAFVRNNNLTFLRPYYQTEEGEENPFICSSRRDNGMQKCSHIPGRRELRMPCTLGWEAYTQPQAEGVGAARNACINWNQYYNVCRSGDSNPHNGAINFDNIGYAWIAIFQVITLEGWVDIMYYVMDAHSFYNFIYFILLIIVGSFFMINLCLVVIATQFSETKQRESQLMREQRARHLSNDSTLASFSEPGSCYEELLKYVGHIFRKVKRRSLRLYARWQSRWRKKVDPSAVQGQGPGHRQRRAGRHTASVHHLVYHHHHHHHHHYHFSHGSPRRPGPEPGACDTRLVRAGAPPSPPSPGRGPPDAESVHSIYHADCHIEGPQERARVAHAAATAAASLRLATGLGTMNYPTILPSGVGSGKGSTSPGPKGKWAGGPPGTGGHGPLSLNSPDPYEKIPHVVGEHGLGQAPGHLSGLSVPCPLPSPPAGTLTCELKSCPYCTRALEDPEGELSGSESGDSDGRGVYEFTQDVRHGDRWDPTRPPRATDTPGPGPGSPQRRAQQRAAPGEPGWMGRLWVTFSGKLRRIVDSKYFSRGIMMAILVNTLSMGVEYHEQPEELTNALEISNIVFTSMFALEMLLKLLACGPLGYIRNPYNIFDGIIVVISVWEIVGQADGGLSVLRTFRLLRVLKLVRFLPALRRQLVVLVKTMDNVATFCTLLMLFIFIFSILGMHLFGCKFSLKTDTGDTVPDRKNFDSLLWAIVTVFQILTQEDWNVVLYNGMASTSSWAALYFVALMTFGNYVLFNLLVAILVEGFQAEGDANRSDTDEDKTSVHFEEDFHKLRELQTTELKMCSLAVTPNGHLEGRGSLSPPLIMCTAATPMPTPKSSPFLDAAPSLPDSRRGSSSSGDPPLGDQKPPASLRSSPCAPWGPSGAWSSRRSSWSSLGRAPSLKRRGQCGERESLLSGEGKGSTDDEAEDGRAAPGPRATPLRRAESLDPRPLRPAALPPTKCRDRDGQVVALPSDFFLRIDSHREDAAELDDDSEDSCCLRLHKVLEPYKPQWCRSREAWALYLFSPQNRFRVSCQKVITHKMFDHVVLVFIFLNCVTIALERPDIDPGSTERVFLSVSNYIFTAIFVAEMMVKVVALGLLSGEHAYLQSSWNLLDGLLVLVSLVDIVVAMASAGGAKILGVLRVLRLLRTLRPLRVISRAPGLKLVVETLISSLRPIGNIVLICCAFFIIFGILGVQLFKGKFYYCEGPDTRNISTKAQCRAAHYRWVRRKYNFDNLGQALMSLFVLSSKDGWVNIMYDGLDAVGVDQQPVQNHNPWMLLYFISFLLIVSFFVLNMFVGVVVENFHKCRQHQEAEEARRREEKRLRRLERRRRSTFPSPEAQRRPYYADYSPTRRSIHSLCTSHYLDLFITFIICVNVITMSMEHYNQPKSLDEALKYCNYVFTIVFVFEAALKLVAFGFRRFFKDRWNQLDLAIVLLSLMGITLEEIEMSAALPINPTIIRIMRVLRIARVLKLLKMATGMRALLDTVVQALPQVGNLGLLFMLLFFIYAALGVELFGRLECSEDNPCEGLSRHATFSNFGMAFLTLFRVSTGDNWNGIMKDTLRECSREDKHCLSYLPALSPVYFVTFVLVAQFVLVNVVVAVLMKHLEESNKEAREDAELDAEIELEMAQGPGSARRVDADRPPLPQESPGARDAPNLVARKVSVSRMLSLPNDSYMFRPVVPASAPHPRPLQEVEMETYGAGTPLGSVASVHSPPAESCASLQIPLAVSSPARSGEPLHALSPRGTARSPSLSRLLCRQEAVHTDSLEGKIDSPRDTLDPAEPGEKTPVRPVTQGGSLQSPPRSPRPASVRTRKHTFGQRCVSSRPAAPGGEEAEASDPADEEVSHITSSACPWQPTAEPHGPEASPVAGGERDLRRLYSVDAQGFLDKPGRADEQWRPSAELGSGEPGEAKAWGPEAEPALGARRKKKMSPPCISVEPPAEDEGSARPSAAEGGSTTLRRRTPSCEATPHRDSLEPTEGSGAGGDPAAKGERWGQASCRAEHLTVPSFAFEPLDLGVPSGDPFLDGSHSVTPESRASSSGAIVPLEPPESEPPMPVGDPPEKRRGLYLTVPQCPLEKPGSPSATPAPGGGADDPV

CN1C(=O)C(Cc2ccc(OCc3ccccc3)cc2)C(=O)N(C)C1=O
AC50 [1]: 9.21 µM (active)

O=C(COC(=O)c1cc(-c2ccco2)nc2ccccc12)NCc1ccccc1
IC50 [2]: 4.07 µM (active)
IC50 [3]: > 56.8 µM (inactive)
IC50 [4]: > 56.8 µM (inactive)

S=C(NCCCN1CCOCC1)NCCCN1CCOCC1
IC50 [5]: 6.17 µM (active)
IC50 [6]: > 158 µM (not active)
IC50 [7]: 2.61 µM (active)
IC50 [8]: > 66 µM (inactive)
IC50 [9]: > 66 µM (inactive)

Cn1c(SCC(=O)N/N=C/C=C\c2ccco2)nc2ccccc21
AC50 [10]: inconclusive
AC50 [11]: inconclusive

CC(C)CN(C(=O)c1ccc(N2CCCC2=O)cc1)c1c(N)n(Cc2ccccc2)c(=O)[nH]c1=O
AC50 [1]: > 60 µM (inactive)

COC(=O)[C@@H]1[C@@H](C#N)C2(c3ccccc3-c3ccccc32)N(c2ccc(Cl)cc2)N1C#N
EC50 [12]: > 59.6 µM (inactive)
EC50 [13]: 19 µM (active)
IC50 [14]: 92.4 µM (active)
EC50 [15]: > 59.6 µM (inactive)
EC50 [16]: 63.1 µM (active)
AC50 [17]: 1.7 µM (active)
EC50 [18]: 5.91 µM (active)

NCCCNCCCCNCCCN [SPERMINE TETRAHYDROCHLORIDE]
IC50 [19]: > 20 µM (inactive)
IC50 [20]: 14.3 µM (active)
IC50 [21]: 15.6 µM (active)

Cn1c(/C(C#N)=C(\O)c2ccc(Br)s2)nc2ccccc21
EC50 [22]: 45 µM (active)
EC50 [23]: 60 µM (active)
EC50 [24]: 77 µM (active)
EC50 [25]: > 100 µM (inactive)

O=C(NCCCN1CCN(c2ccccc2)CC1)C1CCCN(c2ncnc3c2nc2n3CCCCC2)C1 (configuration not stated)
IC50 [19]: > 20 µM (inactive)
IC50 [20]: 7.51 µM (active)
IC50 [21]: 7.05 µM (active)

CCOC(=O)c1c(-c2ccc(F)cc2)csc1NC(=O)CN1C(=O)NC2(CCCCC2C)C1=O (configuration not stated)
EC50 [12]: > 59.6 µM (inactive)
EC50 [15]: > 59.6 µM (inactive)
AC50 [26]: 4.11 µM (active)

CCCCC1=CC2=C(c3ccco3)C(=O)C(C)(OC(=O)c3ccc(OC)cc3)C(=O)C2=CN1Cc1ccccc1 (configuration not stated)
Absolute IC50 (XBP1) [27]: 10 µM
Absolute IC50 (CHOP) [28]: 10 µM

CC(C)c1cccc(C(C)C)c1NC(=O)c1ccc(-c2cc(Cl)ccc2Cl)o1
IC50 [29]: > 25 µM (inactive)
IC50 [30]: 12.7 µM (inactive)
IC50 [31]: > 25 µM (inactive)
IC50 [32]: > 25 µM (inactive)

Nc1c(C(=O)NCc2ccco2)c2nc3ccccc3nc2n1CCc1ccccc1
IC50 [33]: 1.87 µM (active)

CC1CCN(C(=O)CSc2nc3cccnc3n2C)CC1
AC50 [11]: inconclusive

O=C(NC1CCC2CN(Cc3ccccc3)CC21)c1cc(Cl)cc(Cl)c1 (configuration not stated)
EC50 [34]: 4 µM (active)

CC(C)(C)CCN1CCC[C@H](NC(=O)COc2ccc(F)c(Cl)c2)C1
EC50 [34]: 10 µM (active)
